Source: patent US9708498B2, “Azo compound, ink containing azo compound, display including said ink and electronic paper” (MITSUBISHI CHEMICAL CORPORATION, priority 2012, dated 2017)

Experiments:
Format in all cases: physicochemical
[1] = Absorption spectrum of n-decane solution: solution color, absorption maximum wavelength λmax, molar extinction coefficient ε; conditions: for Absorption maximum wavelength λmax: 10 mm quartz cell; for ε (molar extinction coefficient): at λmax
Protocol: The solution color, absorption maximum wavelength (λmax), solubility C in 5° C. n-decane, molar extinction coefficient ε, and εC of each ink are summarized in Table 4.
One milligram of each of compound 1 and comparative compounds 1 and 2 was dissolved in 100 mL of the solvent, and the solution was examined for absorption spectrum with Hitachi Spectrophotometer U-4100 using a quartz cell having a measuring optical-path length of 10 mm. From the spectrum obtained, the absorption maximum wavelength λmax (nm) and the molar extinction coefficient E (L·mol^−1·cm^−1) were determined.

[2] = Light fastness test (xenon light weatherometer, retention of absorbance); conditions: retention of absorbance at λmax; n-decane solution, xenon light 340 nm, 0.55 W/m^2, 40 hours, 33° C.
Protocol: The light fastness of compounds 1 to 3, 5, and 7 to 11 and comparative compound 1 was determined in the following manner. In 0.99 g of n-decane was dissolved 0.01 of each compound. This solution was introduced into a cell having an optical-path length of 0.004 mm, and this cell was sealed with an epoxy resin. Using a weatherometer (Atlas Ci4000), the cell was irradiated with xenon light (340 nm; irradiance, 0.55 W/m^2) for 40 hours. During the irradiation, the internal temperature of the test chamber was kept at 33° C.
The retention of each compound was calculated using the following equation.

[3] = Solubility C of the compound in n-decane at 5° C. (saturated solution, absorbance) and product εC; conditions: for Solubility C: in n-decane at 5° C., 24 hours, 0.1-μm filter; for εC: product of ε and saturation concentration C in n-decane at 5° C.
Protocol: The solubility C of each compound in n-decane was determined in the following manner. Each of compounds 1 to 11 and comparative compound 1 was added to n-decane until some of the compound came to remain undissolved, and the mixture was subjected to an ultrasonic treatment at 30° C. for 30 minutes.
After the addition, each mixture was subjected to a 30-minute ultrasonic treatment at 30° C. This mixture was allowed to stand at 5° C. for 24 hours and then subjected to centrifugal filtration with a 0.1-μm filter using a miniature centrifugal machine (centrifugal force, 5,200×g). The saturated solution obtained was diluted to an adequate concentration and examined for absorption spectrum with Hitachi Spectrophotometer U-4100 using a quartz cell having a measuring optical-path length of 10 mm. The concentration of each compound was determined from a relationship between the absorbance at the absorption maximum wavelength λmax (nm) and the molar extinction coefficient ε (L·mol^−1·cm^−1) determined beforehand, and the solubility C (mol·L^−1) thereof was calculated. Furthermore, the product εC of the molar extinction coefficient ε (L·mol^−1·cm^−1) and the solubility C (mol·L^−1) was determined.

[4] = Relative permittivity of solvent (impedance meter method); conditions: 1 kHz, 22° C.
Source text: Precision LCR Meter 4284A, manufactured by Agilent Technologies, Inc., was used to make a measurement by the impedance meter method. […] Relative permittivity=(equivalent parallel capacitance)×(electrode spacing)/(electrode area)/(permittivity of vacuum (ε0))

[5] = Solubility of solvent in water (gas chromatography); conditions: pure water, 25° C.
Protocol: Into a 110-mL vial were introduced 30 g of pure water and 8 g of the solvent. This vial was shaken for 4 hours at a frequency of 200 times per minute in a 25° C. thermostatic chamber. The liquid which had undergone the shaking was centrifuged (6,000×g; for 5 minutes), and the aqueous layer was sampled. The concentration of the solvent dissolved therein was determined by gas chromatography.

Absorption maximum wavelength λmax [1] [nm] | ε (molar extinction coefficient) [1] [L/mol/cm] | Light fastness [2] | Solubility C [3] | εC [3] | relative permittivity [4] | solubility at 4 h [5] [µg/mL] | SMILES
608 | 62000 | A (retention of 100-90%) | 1.7 mass % | 1220 cm⁻¹ | – | – | CCCCc1ccc(N=Nc2sc(N=Nc3ccc(N(CC(CC)CCCC)CC(CC)CCCC)cc3C)c(C#N)c2C)cc1 (stereo not drawn) [Compound 2]
590 | 51000 | A (retention of 100-90%) | 17.4 mass % | 9500 cm⁻¹ | – | – | CCCCc1ccc(N=Nc2cc(C(=O)OCCC)c(N=Nc3ccc(N(CC(CC)CCCC)CC(CC)CCCC)cc3C)s2)cc1 (stereo not drawn) [Compound 7]
595 | 57000 | A (retention of 100-90%) | ≧15 mass % | ≧9000 cm^−1 | – | – | CCCCc1ccc(N=Nc2cc(C#N)c(N=Nc3sc(N(CC(CC)CCCC)CC(CC)CCCC)nc3C(C)(C)C)s2)cc1 (stereo not drawn) [Compound 10]
595 | 59000 | A (retention of 100-90%) | ≧19.7 mass % | ≧12000 cm^−1 | – | – | CCCCc1ccc(N=Nc2cc(C#N)c(N=Nc3sc(N(CC(CC)CCCC)CC(CC)CCCC)nc3C(C)(C)C)s2)c(C)c1 (stereo not drawn) [Compound 11]

The remaining lines, values behind:

SMILES | Absorption maximum wavelength λmax [1] [nm] | ε (molar extinction coefficient) [1] [L/mol/cm] | Light fastness [2] | Solubility C [3] | εC [3] | relative permittivity [4] | solubility at 4 h [5] [µg/mL]
CCCCC(CC)CN(CC(CC)CCCC)c1ccc(N=Nc2sc(N=Nc3ccc(CCC)cc3)c(C)c2C#N)c(NC(C)=O)c1 (stereo not drawn) [Compound 3] | 617 | 70000 | A (retention of 100-90%) | ≧34.3 mass % | ≧20000 cm^−1 | – | –
CCCCc1ccc(N=Nc2sc(N=Nc3cc(OCC)c(N(CC(CC)CCCC)CC(CC)CCCC)cc3OCC)c(C#N)c2C)cc1 (stereo not drawn) [Compound 4] | 638 | 54000 | A (retention of 100-90%) | ≧10.5 mass % | ≧6000 cm^−1 | – | –
CCCCCc1ccc(N=Nc2cc(C(=O)OCCC)c(N=Nc3ccc(N(CC(CC)CCCC)CC(CC)CCCC)cc3CC)s2)cc1 (stereo not drawn) [Compound 5] | 591 | 50000 | A (retention of 100-90%) | ≧20.1 mass % | ≧10000 cm^−1 | – | –
CCCCCCSc1nnc(N=Nc2cc(OC)c(N(Cc3ccc(C(C)(C)C)cc3)Cc3ccc(C(C)(C)C)cc3)cc2NC(C)=O)s1 [compound 1, reference compound] | 526 | 50000 | D (retention of 49% or less) | 9.1 mass % | 4700 cm⁻¹ | – | –
CCCCCCCCCC [n-decane] | – | – | – | – | – | 2.0 | ≤ 1
